Reference: ChEMBL document CHEMBL1146704, “(2-amino-phenyl)-amides of omega-substituted alkanoic acids as new histone deacetylase inhibitors” (Bioorg Med Chem Lett, 2004)
Calls of active or inactive are those of the source. The rule behind the calls is not given here.

Tests used:
HCT-116 = experiment: In vitro antiproliferative activity against human cancer cell line HCT116 using MTT assay; format: functional, cell-based
Histone deacetylase 1 = Histone deacetylase 1 (Homo sapiens, UniProt Q13547)
Histone deacetylase 1, sequence (Q13547 whole entry): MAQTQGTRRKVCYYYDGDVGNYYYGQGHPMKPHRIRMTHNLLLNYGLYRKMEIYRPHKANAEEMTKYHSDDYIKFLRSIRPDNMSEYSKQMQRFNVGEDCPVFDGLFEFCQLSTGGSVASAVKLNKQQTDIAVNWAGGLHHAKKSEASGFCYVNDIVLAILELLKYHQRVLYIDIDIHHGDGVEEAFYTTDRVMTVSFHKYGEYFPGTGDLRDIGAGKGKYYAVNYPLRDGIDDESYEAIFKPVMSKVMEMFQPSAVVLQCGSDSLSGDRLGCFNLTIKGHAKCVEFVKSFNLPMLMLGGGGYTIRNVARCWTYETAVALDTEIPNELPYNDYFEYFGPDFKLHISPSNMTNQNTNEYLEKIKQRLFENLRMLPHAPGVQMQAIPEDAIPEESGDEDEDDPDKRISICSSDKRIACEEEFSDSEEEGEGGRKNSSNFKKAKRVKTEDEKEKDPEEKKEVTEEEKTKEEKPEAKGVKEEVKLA
Description: Ability to inhibit recombinant human histone deacetylase 1 (HDAC-1).

Histone deacetylase = experiment: Effect on induced hyperacetylation of histones in whole cells; format: functional, cell-based, Homo sapiens
[1] = Compound was tested for tumor growth inhibition relative to control; format: functional
PANC-1 = experiment: […] inhibitory activity against human PANC-1 pancreatic tumor; Active; format: functional
COLO 205 = experiment: In vivo inhibitory activity against human COLO 205 tumor; Active
SW48 = experiment: In vivo inhibitory activity against human SW48 colon tumor; Active
A549 = experiment: In vivo inhibitory activity against human A549 non-small cell lung tumor; Active
DU-145 = experiment: In vivo inhibitory activity against human DU145 prostate tumor; Active; conditions: Prostate gland

SMILES	IC50 (HCT-116)	IC50 (Histone deacetylase 1)	EC50 (Histone deacetylase)	TGI [1]	Activity (PANC-1)	Activity (COLO 205)	Activity (SW48)	Activity (A549)	Activity (DU-145)
Nc1ccccc1NC(=O)CCCCCn1cnc2ccccc2c1=O	10 µM	–	–	–	–	–	–	–	–
Nc1ccccc1NC(=O)CCCCCCC(=O)c1cccc(-c2ccccc2)c1	12 µM	1 µM	25 µM	–	–	–	–	–	–
Nc1ccccc1NC(=O)CCCCCCC(=O)c1ccc(-c2cccnc2)cc1	19 µM	10 µM	20 µM	–	–	–	–	–	–
Nc1ccccc1NC(=O)CCCCCCC(=O)c1ccc(Br)cc1	20 µM	6 µM	15 µM	–	–	–	–	–	–
Nc1ccccc1NC(=O)CCCCCCC(=O)c1ccc(-c2ccccc2)cc1	7 µM	2 µM	10 µM	53%	Active	Active	Active	Active	Active
COc1ccc(-c2ccc(C(=O)CCCCCCC(=O)Nc3ccccc3N)cc2)cc1OC	4 µM	4 µM	3 µM	–	–	–	–	–	–
Nc1ccccc1NC(=O)CCCCCN1C(=O)c2ccccc2C1=O	24 µM	2 µM	5 µM	–	–	–	–	–	–
Nc1ccccc1NC(=O)CCCCCCC(=O)c1ccccc1	> 25 µM	9 µM	25 µM	–	–	–	–	–	–
Cn1c(=O)n(CCCCCC(=O)Nc2ccccc2N)c(=O)c2ccccc21	5 µM	4 µM	–	–	–	–	–	–	–
Nc1ccccc1NC(=O)CCCCCN1C(=O)c2cccc3cc(O)cc(c23)C1=O	0.9 µM	–	–	28%	Active	Active	Active	Active	Active
Nc1ccccc1NC(=O)CCCCCCC(=O)c1ccc(-c2ccccc2)nc1	5 µM	3 µM	5 µM	–	Active	Active	Active	Active	Active
COc1ccc(C(=O)CCCCCCC(=O)Nc2ccccc2N)cc1	21 µM	5 µM	5 µM	–	–	–	–	–	–
Nc1ccccc1NC(=O)CCCCCN1C(=O)c2ccc(O)cc2C1=O	11 µM	–	10 µM	–	–	–	–	–	–
Nc1ccccc1NC(=O)CCCCCN1C(=O)c2cccc3cccc(c23)C1=O	2 µM	3 µM	3 µM	–	Active	Active	Active	Active	Active
Nc1ccccc1NC(=O)CCCCCN1C(=O)c2cccnc2C1=O	> 47 µM	–	> 25 µM	–	–	–	–	–	–

More lines, in order of falling IC50 (HCT-116), values ahead:

IC50 (HCT-116)	IC50 (Histone deacetylase 1)	EC50 (Histone deacetylase)	SMILES	TGI [1]	Activity (PANC-1)	Activity (COLO 205)	Activity (SW48)	Activity (A549)	Activity (DU-145)
31 µM	–	–	Nc1ccccc1NC(=O)CCCCCN1C(=O)c2cc(O)c(CN3CCCCC3)cc2C1=O	–	–	–	–	–	–
15 µM	–	99 µM	Nc1ccccc1NC(=O)CCCCCN1Cc2ccccc2C1=O	–	–	–	–	–	–
12 µM	4 µM	–	Nc1ccccc1NC(=O)CCCCCN1C(=O)c2cc(O)c(CN3CCOCC3)cc2C1=O	–	–	–	–	–	–
10 µM	8 µM	10 µM	Nc1ccccc1NC(=O)CCCCCn1nnc2ccccc2c1=O	–	–	–	–	–	–
9 µM	2 µM	25 µM	Nc1ccccc1NC(=O)CCCCCCC(=O)c1ccc2ccccc2c1	–	–	–	–	–	–
6 µM	–	3 µM	Cc1ccc2c(c1)C(=O)N(CCCCCC(=O)Nc1ccccc1N)C2=O	–	–	–	–	–	–
6 µM	–	10 µM	Nc1ccccc1NC(=O)CCCCCN1C(=O)c2cccc3c(Br)ccc(c23)C1=O	–	–	–	–	–	–
5 µM	4 µM	10 µM	Nc1ccccc1NC(=O)CCCCCn1c(=O)[nH]c2ccccc2c1=O	–	–	–	–	–	–
1 µM	–	1 µM	Nc1ccccc1NC(=O)CCCCCN1C(=O)c2cccc3c(CN4CCCCC4)c(O)cc(c23)C1=O	–	–	–	–	–	–
1 µM	0.5 µM	2 µM	Nc1ccccc1NC(=O)CCCCCN1C(=O)c2cccc3c(CN4CCOCC4)c(O)cc(c23)C1=O	–	Active	Active	Active	Active	Active
0.5 µM	–	–	Nc1ccccc1NC(=O)c1ccc(CNC(=O)OCc2cccnc2)cc1 [ENTINOSTAT]	–	–	–	–	–	–
